Test results from the Deep4Chem optical property database.
Each block holds one compound with its values, some of them ahead of it.

Assay: solvent given as SMILES

emission maximum (in ClCCl): 575 nm
SMILES: O=[N+]([O-])c1ccc([N+]2=CC3=C(O[B-]2(F)F)c2ccccc2SC3)cc1

emission maximum (in CCCCO): 477 nm
emission maximum (in CCCO): 479 nm
emission maximum (in CCO): 485 nm
emission maximum (in CO): 490 nm
emission maximum (in OCC(O)CO): 501 nm
emission maximum (in OCCO): 495 nm
SMILES: O=S(=O)(O)c1cccc2cccc(Nc3ccccc3)c12

SMILES: c1ccc2c(c1)c1ccccc1n2-c1ccc(-c2ccc(-c3ccc(-n4c5ccccc5c5ccccc54)nc3-n3c4ccccc4c4ccccc43)nn2)c(-n2c3ccccc3c3ccccc32)n1
emission maximum (in CC#N): 474.18 nm
emission maximum (in Cc1ccccc1): 400 nm
emission maximum (in ClCCl): 419.62 nm

emission maximum (in ClC(Cl)Cl): 733 nm
emission maximum (in ClCCl): 733 nm
SMILES: COc1ccc2cc(C3=[N+]4C(=Nc5c(-c6ccccc6)cc(-c6ccc7cc(OC)ccc7c6)n5[B-]4(F)F)C(c4ccccc4)=C3)ccc2c1

emission maximum (in C1CCOC1): 469 nm
emission maximum (in CC#N): 485 nm
emission maximum (in CO): 488 nm
emission maximum (in ClCCl): 472 nm
SMILES: C(=C\c1nc2ccccc2s1)/c1ccc(-c2nc3c4cccnc4c4ncccc4c3[nH]2)cc1

SMILES: c1ccc(-c2nc(-c3ccccc3)nc(-c3cc(-n4c5ccccc5c5ccccc54)cc(-n4c5ccccc5c5ccccc54)c3)n2)cc1
emission maximum (in C1CCCCC1): 409.39 nm
emission maximum (in C1CCOC1): 546.94 nm
emission maximum (in Cc1ccccc1): 475.1 nm

emission maximum (in C1CCCCC1): 360 nm
SMILES: COc1ccc(-c2ccc(-c3ccc(OC)cc3)cc2)cc1

emission maximum (in O): 665 nm
SMILES: COc1ccc(OC)c(C2=C3C=CC(=[N+](C)C)C=C3[Si](C)(C)c3cc(N(C)C)ccc32)c1

emission maximum (in C1CCCCC1): 407 nm
SMILES: CCCC1(CCC)c2cc(-c3ccc4c(c3)C(CCC)(CCC)c3cc(-c5ccc6c(c5)C(CCC)(CCC)c5cc(C(C)(C)CC)ccc5-6)ccc3-4)ccc2-c2ccc(-c3ccc4c(c3)C(CCC)(CCC)c3cc(C(C)(C)CC)ccc3-4)cc21

emission maximum (in C1CCCCC1): 468 nm
emission maximum (in CC#N): 495 nm
emission maximum (in ClC(Cl)Cl): 488 nm
SMILES: O=C1Cc2ccc(cc2)CC(=O)Cc2ccc(c3nsnc23)C1

SMILES: c1ccc2cc3c4c(ccc3cc2c1)-c1cccc2cccc-4c12
emission maximum (in CCCCCCC): 520 nm

emission maximum (in ClCCl): 408 nm
SMILES: CCOC(=O)c1c(-c2cc3ccccc3oc2=O)nn(-c2ccc(C)c(C)c2)c1C(=O)OCC

emission maximum (in O): 408 nm
SMILES: Clc1ccc2cc3cccc[n+]3cc2c1

emission maximum (in ClCCl): 498 nm
SMILES: CCN(CC)c1ccc2cc(-c3nc4cc(C(=O)Nc5ccccc5[N+](=O)[O-])ccc4o3)c(=O)oc2c1

emission maximum (in ClC(Cl)Cl): 414 nm
SMILES: O=Cc1ccc(Oc2ccc3c4c(cccc24)C(=O)N(CCO)C3=O)cc1

emission maximum (in C1COCCO1): 574 nm
SMILES: COC(=O)c1ccc(/C=C2\C=C(c3ccc(OC)c(OC)c3)NC2=O)cc1

SMILES: Cc1cc(-c2nnc(-c3ccccc3)o2)ccc1-n1c2ccccc2c2ccccc21
emission maximum (in CCO): 445 nm
emission maximum (in Cc1ccccc1): 382 nm

emission maximum (in C1COCCO1): 403.62 nm
emission maximum (in CC#N): 419.17 nm
emission maximum (in CCO): 461.12 nm
emission maximum (in CS(C)=O): 427.12 nm
emission maximum (in O): 507.23 nm
SMILES: Cc1c(OCC(=O)O)cc2c3c([nH]c2c1C)C(=O)CCC3

emission maximum (in C1CCOC1): 560 nm
emission maximum (in CC#N): 606 nm
emission maximum (in CCCCCC): 492 nm
SMILES: CC1=N/C(=C\c2cc(N(C)C)ccc2C#N)C(=O)N1C

emission maximum (in C1CCOC1): 403 nm
SMILES: C(=C1c2ccccc2CCc2ccccc21)c1ccc(-c2cc(-c3ccc(C=C4c5ccccc5CCc5ccccc54)cc3)cc(-c3ccc(C=C4c5ccccc5CCc5ccccc54)cc3)c2)cc1

SMILES: CCC1(CC)c2cc(C=C(C#N)C#N)ccc2-c2ccc(N(C)C)cc21
emission maximum (in C1CCCCC1): 528 nm
emission maximum (in CC#N): 688 nm
emission maximum (in CCO): 677 nm
emission maximum (in CCOCC): 579 nm
emission maximum (in CS(C)=O): 711 nm
emission maximum (in ClCCl): 631 nm
emission maximum (in c1ccccc1): 560 nm

emission maximum (in ClCCl): 661 nm
SMILES: CC(C)[Si](C#Cc1c2cc3ccccc3cc2c(C#Cc2ccccc2)c2cc3ccccc3cc12)(C(C)C)C(C)C

emission maximum (in ClC(Cl)Cl): 542 nm
SMILES: CCCCN1C(=O)c2ccc3c4c(Br)cc5c6c(ccc(c7c(Br)cc(c2c37)C1=O)c64)C(=O)N(CCCC)C5=O

emission maximum (in ClC(Cl)Cl): 495 nm
SMILES: CN(C)c1ccc(-c2cc(-c3ccc(C#N)cc3)nc(-c3ccccc3)n2)cc1

emission maximum (in CCO): 439 nm
SMILES: O=c1c2cc(F)c(O)cc2oc2cc(O)c(F)cc12

emission maximum (in CC#N): 330 nm
emission maximum (in CCOC(C)=O): 327 nm
emission maximum (in CO): 338 nm
SMILES: COC(=O)C[C@H](NC(=O)[C@H](Cc1c[nH]c2ccccc12)NC(=O)OC(C)(C)C)C(=O)OC

emission maximum (in CN(C)C=O): 395 nm
SMILES: COCCC1(CCOC)c2cc(-c3ccc(OC)cc3)ccc2-c2ccc(-c3ccc4c(c3)C(CCOC)(CCOC)c3cc(-c5ccc(OC)cc5)ccc3-4)cc21

emission maximum (in CC#N): 446 nm
emission maximum (in CCCCCC): 390 nm
SMILES: Nc1ccc(/C=C/c2cccnc2)cc1

emission maximum (in ClCCl): 712 nm
SMILES: CCN(CC)c1ccc2c(-c3ccccc3C(=O)O)c3c([o+]c2c1)/C(=C/c1ccc2c(c1)c1ccccc1n2CC)CCC3

emission maximum (in C1CCCCC1): 455 nm
SMILES: N#Cc1c(-c2ccccc2)cc(N2c3ccccc3Oc3ccccc32)cc1-c1ccccc1

emission maximum (in ClCCl): 601 nm
SMILES: CN(C)c1ccc(C2=C3C=C(c4ccc(C#N)cc4)S[C@]34c3ccccc3[C@H]2c2ccccc24)cc1

emission maximum (in CCCCCC): 346 nm
emission maximum (in CO): 376 nm
emission maximum (in ClCCl): 377 nm
SMILES: C[Si](C)(C)c1ccc2ccc3cccc4ccc1c2c34

emission maximum (in CO): 542 nm
SMILES: C(=C\c1cc[n+]2ccc(/C=C/c3cc[nH]c3)cc2c1)/c1cc[nH]c1

emission maximum (in ClCCl): 616 nm
SMILES: O=C1c2ccccc2-c2nc3c4ccccc4c4ccccc4c3n21

SMILES: CC(C)(C)c1ccc(-c2nc3c4ccc(-c5ccc6ccc7cccc8ccc5c6c78)cc4c4cc(-c5ccc6ccc7cccc8ccc5c6c78)ccc4c3n2-c2ccc(C(C)(C)C)cc2)cc1
emission maximum (in C1CCOC1): 442 nm
emission maximum (in C1COCCO1): 432 nm
emission maximum (in CC#N): 460 nm
emission maximum (in CCCCCC): 428 nm
emission maximum (in CCCCOCCCC): 427 nm
emission maximum (in CCN(CC)CC): 428 nm
emission maximum (in CCOC(C)=O): 440 nm
emission maximum (in CCOCC): 432 nm
emission maximum (in CN(C)C=O): 459 nm
emission maximum (in Cc1ccccc1): 433 nm
emission maximum (in ClC=C(Cl)Cl): 437 nm
emission maximum (in ClCCl): 450 nm

emission maximum (in ClC(Cl)Cl): 387 nm
SMILES: c1ccc(-c2c3c(nc4ccccc24)-c2cc4c(cc2CC3)-c2nc3ccccc3c(-c3ccccc3)c2CC4)cc1

SMILES: COc1ccc(-c2csc(/C(C#N)=N\Nc3ccc(C#N)cc3)n2)cc1
emission maximum (in CC#N): 505 nm
emission maximum (in CCO): 508 nm
emission maximum (in Cc1ccccc1): 494 nm
emission maximum (in ClCCl): 527 nm

emission maximum (in ClC(Cl)Cl): 399 nm
SMILES: COc1cc2cc(C#N)c3ccc4ccccc4c3c2cc1OC

emission maximum (in CC#N): 407 nm
SMILES: C[n+]1ccc2c(ccc3c[n+](C)ccc32)c1

emission maximum (in O): 663 nm
SMILES: Cc1cc(N(C)C)ccc1C1=C2C=CC(=[N+](C)C)C=C2[Si](C)(C)c2cc(N(C)C)ccc21

emission maximum (in CCO): 448 nm
SMILES: O=c1c2cc(F)c(N3CCOCC3)cc2oc2cc(N3CCOCC3)c(F)cc12

emission maximum (in ClCCl): 462 nm
SMILES: COc1cccc2cc(C#N)c(=N)oc12

SMILES: CCn1c2ccccc2c2cc(-c3cc(-c4ccc5c(c4)c4ccccc4n5CC)nc(-c4ccc(C#N)cc4)n3)ccc21
emission maximum (in C1CCOC1): 408 nm
emission maximum (in CCOC(C)=O): 408 nm
emission maximum (in CN(C)C=O): 422 nm
emission maximum (in Cc1ccccc1): 388 nm
emission maximum (in ClCCl): 417 nm

emission maximum (in CCCCCC): 551 nm
SMILES: CC(C)[Si](C#Cc1c2nsnc2c(C#C[Si](C(C)C)(C(C)C)C(C)C)c2nc3c(nc12)Cc1ccccc1-3)(C(C)C)C(C)C

SMILES: CC1=NN(c2ccccc2)C(=O)/C1=C/c1cn(-c2ccccc2)nc1-c1ccccc1
emission maximum (in C1CCOC1): 429 nm
emission maximum (in C1COCCO1): 407 nm
emission maximum (in CCO): 427 nm
emission maximum (in CCOC(C)=O): 422 nm
emission maximum (in CN(C)C=O): 435 nm
emission maximum (in CO): 430 nm
emission maximum (in CS(C)=O): 437 nm
emission maximum (in Cc1ccccc1): 416 nm
emission maximum (in ClC(Cl)Cl): 432 nm
emission maximum (in ClCCl): 436 nm

SMILES: CC(=O)O[B-]1(OC(C)=O)OC(/C=C/C=C/c2ccccc2)=CC(/C=C/C=C/c2ccccc2)=[O+]1
emission maximum (in C1CCOC1): 531 nm
emission maximum (in CC#N): 550 nm
emission maximum (in CC(C)=O): 544 nm
emission maximum (in CS(C)=O): 558 nm
emission maximum (in Cc1ccccc1): 523 nm
emission maximum (in ClC(Cl)Cl): 543 nm
emission maximum (in ClCCl): 545 nm

SMILES: Cc1ccc(/C(C#N)=C/c2cc(/C=C(\C#N)c3ccc(C)cc3)c(-c3ccc(N(c4ccccc4)c4ccccc4)cc3)cc2-c2ccc(N(c3ccccc3)c3ccccc3)cc2)cc1
emission maximum (in C1CCCCC1): 453 nm
emission maximum (in C1CCOC1): 538 nm
emission maximum (in CCCCCC): 453 nm
emission maximum (in CCOC(C)=O): 533 nm
emission maximum (in Cc1ccccc1): 480 nm
emission maximum (in ClC(Cl)Cl): 517 nm
emission maximum (in ClCCl): 552 nm

SMILES: Cc1cc2c(cc1N1c3ccccc3C(C)(C)c3ccccc31)C(C)(C)c1cc(N3c4ccccc4C(C)(C)c4ccccc43)c(C)cc1S2(=O)=O
emission maximum (in Cc1ccccc1): 442.11 nm
emission maximum (in ClCCl): 495 nm

SMILES: c1ccc(-c2nc(-c3ccccc3)nc(-c3ccccc3-n3c4ccccc4c4c5oc6ccccc6c5ccc43)n2)cc1
emission maximum (in C1CCCCC1): 438.08 nm
emission maximum (in C1CCOC1): 492.26 nm
emission maximum (in Cc1ccccc1): 474.61 nm
emission maximum (in O=P(c1ccccc1)(c1ccccc1)c1ccccc1Oc1ccccc1P(=O)(c1ccccc1)c1ccccc1): 456.95 nm

emission maximum (in ClC(Cl)Cl): 475 nm
SMILES: N#Cc1c2oc3ccccc3oc2c(C#N)c2oc3ccccc3oc12

emission maximum (in ClC(Cl)Cl): 541 nm
SMILES: CCCCCCCCc1ccc(-c2ccc(-c3cc(-c4ccc(-c5ccc(CCCCCCCC)s5)c5nsnc45)c4ccc5c(-c6ccc(-c7ccc(CCCCCCCC)s7)c7nsnc67)cc(-c6ccc(-c7ccc(CCCCCCCC)s7)c7nsnc67)c6ccc3c4c65)c3nsnc23)s1

SMILES: CCn1c2ccccc2c2cc(-c3cc(-c4ccc5c(c4)c4ccccc4n5CC)nc(N4CCCCC4)n3)ccc21
emission maximum (in C1CCOC1): 408 nm
emission maximum (in CCOC(C)=O): 409 nm
emission maximum (in CN(C)C=O): 417 nm
emission maximum (in Cc1ccccc1): 406 nm
emission maximum (in ClCCl): 414 nm

emission maximum (in CC1CCCCC1): 325 nm
emission maximum (in CC#N): 360 nm
emission maximum (in CO): 348 nm
SMILES: COC(=O)C(NC(=O)OC(C)(C)C)c1ccc2oc(-c3cccc(Oc4ccccc4)c3)nc2c1 (stereo not given)
